Values of other authors, collected in patent US7579333B2 (Teva Pharmaceutical Industries Ltd., priority 2004, dated 2009).

Experiments:
[1] = in vivo
[2] = system: femoral bone mass density; conditions: 1 year; 60 mg/day raloxifene, 10 mg/day alendronate; 331 patients
new vertebral fractures = conditions: post-menopausal women with osteoporosis

SMILES	pH at which best absorbed [1]	improvement in femoral bone mass density [2]	decrease in incidence of new vertebral fractures (new vertebral fractures)
NCCCC(O)(P(=O)(O)O)P(=O)(O)O [alendronate]	~6		
O=C(c1ccc(OCCN2CCCCC2)cc1)c1c(-c2ccc(O)cc2)sc2cc(O)ccc12 [raloxifene]		1.7%	30-50%
